Measurements reported in PubChem BioAssay (NCI).
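Results reflect a 48-hour exposure of cells in 96-well plates to compound at five concentrations. GI50: concentration for 50% inhibition of growth. TGI: total growth inhibition.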

Assays:
Test in all cases: NCI anticancer screen, dose series, 48 h
HS 578T breast = tested on: HS 578T breast
SF-295 CNS = tested on: SF-295 CNS
MDA-MB-231 breast = tested on: MDA-MB-231 breast
SF-539 CNS = tested on: SF-539 CNS
KM12 colon = tested on: KM12 colon
SF-268 CNS = tested on: SF-268 CNS
SNB-19 CNS = tested on: SNB-19 CNS
BT-549 breast = tested on: BT-549 breast
HCC-2998 colon = tested on: HCC-2998 colon
MALME-3M melanoma = tested on: MALME-3M melanoma
A498 renal = tested on: A498 renal
NCI-H460 lung = tested on: NCI-H460 lung
MCF7 breast = tested on: MCF7 breast
UACC-62 melanoma = tested on: UACC-62 melanoma
HT29 colon = tested on: HT29 colon
RPMI-8226 leukemia = tested on: RPMI-8226 leukemia
NCI-H522 lung = tested on: NCI-H522 lung
U251 CNS = tested on: U251 CNS
CAKI-1 renal = tested on: CAKI-1 renal
MDA-MB-435 = tested on: MDA-MB-435
NCI-H23 lung = tested on: NCI-H23 lung
HOP-62 NSCLC = tested on: HOP-62 NSCLC
SK-MEL-5 melanoma = tested on: SK-MEL-5 melanoma
SR leukemia = tested on: SR leukemia
IGROV1 ovarian = tested on: IGROV1 ovarian
CCRF-CEM leukemia = tested on: CCRF-CEM leukemia
COLO 205 colon = tested on: COLO 205 colon
NCI/ADR-RES ovarian = tested on: NCI/ADR-RES ovarian
OVCAR-3 ovarian = tested on: OVCAR-3 ovarian
HL-60(TB) leukemia = tested on: HL-60(TB) leukemia
SW-620 colon = tested on: SW-620 colon
TK-10 renal = tested on: TK-10 renal
LOX IMVI melanoma = tested on: LOX IMVI melanoma
UO-31 renal = tested on: UO-31 renal
HCT-15 colon = tested on: HCT-15 colon
OVCAR-4 ovarian = tested on: OVCAR-4 ovarian
A549 NSCLC = tested on: A549 NSCLC
786-0 renal = tested on: 786-0 renal
OVCAR-5 ovarian = tested on: OVCAR-5 ovarian
PC-3 prostate = tested on: PC-3 prostate
M14 melanoma = tested on: M14 melanoma
ACHN renal = tested on: ACHN renal
SK-MEL-2 melanoma = tested on: SK-MEL-2 melanoma
SK-OV-3 ovarian = tested on: SK-OV-3 ovarian
K-562 leukemia = tested on: K-562 leukemia
EKVX NSCLC = tested on: EKVX NSCLC
HCT-116 colon = tested on: HCT-116 colon
SK-MEL-28 melanoma = tested on: SK-MEL-28 melanoma
SN12C renal = tested on: SN12C renal
OVCAR-8 ovarian = tested on: OVCAR-8 ovarian
MOLT-4 leukemia = tested on: MOLT-4 leukemia
UACC-257 melanoma = tested on: UACC-257 melanoma
T-47D breast = tested on: T-47D breast
SNB-75 CNS = tested on: SNB-75 CNS
NCI-H226 lung = tested on: NCI-H226 lung
HOP-92 NSCLC = tested on: HOP-92 NSCLC
DU-145 prostate = tested on: DU-145 prostate

SMILES: COc1cc(O)c2c3c(ccnc13)-c1ccccc1N2
- GI50 (HS 578T breast): 15.5 µM
- TGI (HS 578T breast): 92.8 µM
- GI50 (SF-295 CNS): 5.9 µM
- TGI (SF-295 CNS): 53.7 µM
- GI50 (MDA-MB-231 breast): 5.19 µM
- TGI (MDA-MB-231 breast): 71.9 µM
- GI50 (SF-539 CNS): 3.33 µM
- TGI (SF-539 CNS): 10.8 µM
- GI50 (KM12 colon): 5.06 µM
- TGI (KM12 colon): 64.5 µM
- GI50 (SF-268 CNS): 8.63 µM
- TGI (SF-268 CNS): 98.9 µM
- GI50 (SNB-19 CNS): 4.86 µM
- TGI (SNB-19 CNS): 49.2 µM
- GI50 (BT-549 breast): 15.4 µM
- TGI (BT-549 breast): 60.2 µM
- GI50 (HCC-2998 colon): 4.39 µM
- TGI (HCC-2998 colon): 12.3 µM
- GI50 (MALME-3M melanoma): 14.9 µM
- TGI (MALME-3M melanoma): 46.5 µM
- GI50 (A498 renal): 22.4 µM
- TGI (A498 renal): 42.2 µM
- GI50 (NCI-H460 lung): 2.69 µM
- TGI (NCI-H460 lung): > 100 µM
- GI50 (MCF7 breast): 2.01 µM
- TGI (MCF7 breast): 8.59 µM
- GI50 (UACC-62 melanoma): 4.33 µM
- TGI (UACC-62 melanoma): 17.1 µM
- GI50 (HT29 colon): 5.11 µM
- TGI (HT29 colon): > 100 µM
- GI50 (RPMI-8226 leukemia): 3.93 µM
- TGI (RPMI-8226 leukemia): > 100 µM
- GI50 (NCI-H522 lung): 9.34 µM
- TGI (NCI-H522 lung): 60 µM
- GI50 (U251 CNS): 6.07 µM
- TGI (U251 CNS): 79.6 µM
- GI50 (CAKI-1 renal): 12.8 µM
- TGI (CAKI-1 renal): 47.4 µM
- GI50 (MDA-MB-435): 1.9 µM
- TGI (MDA-MB-435): 3.66 µM
- GI50 (NCI-H23 lung): 20.5 µM
- TGI (NCI-H23 lung): > 100 µM
- GI50 (HOP-62 NSCLC): 10.4 µM
- TGI (HOP-62 NSCLC): > 100 µM
- GI50 (SK-MEL-5 melanoma): 2.73 µM
- TGI (SK-MEL-5 melanoma): 12.5 µM
- GI50 (SR leukemia): 0.488 µM
- TGI (SR leukemia): > 100 µM
- GI50 (IGROV1 ovarian): 10.8 µM
- TGI (IGROV1 ovarian): > 100 µM
- GI50 (CCRF-CEM leukemia): 7.36 µM
- TGI (CCRF-CEM leukemia): > 100 µM
- GI50 (COLO 205 colon): 6.23 µM
- TGI (COLO 205 colon): > 100 µM
- GI50 (NCI/ADR-RES ovarian): 9.25 µM
- TGI (NCI/ADR-RES ovarian): 92.7 µM
- GI50 (OVCAR-3 ovarian): 2.01 µM
- TGI (OVCAR-3 ovarian): 5.96 µM
- GI50 (HL-60(TB) leukemia): 21.8 µM
- TGI (HL-60(TB) leukemia): > 100 µM
- GI50 (SW-620 colon): 2.63 µM
- TGI (SW-620 colon): > 100 µM
- GI50 (TK-10 renal): 33.2 µM
- TGI (TK-10 renal): 85.9 µM
- GI50 (LOX IMVI melanoma): 3.2 µM
- TGI (LOX IMVI melanoma): 31.7 µM
- GI50 (UO-31 renal): 18.8 µM
- TGI (UO-31 renal): > 100 µM
- GI50 (HCT-15 colon): 2.35 µM
- TGI (HCT-15 colon): 29.1 µM
- GI50 (OVCAR-4 ovarian): 2.85 µM
- TGI (OVCAR-4 ovarian): 25.1 µM
- GI50 (A549 NSCLC): 2.37 µM
- TGI (A549 NSCLC): > 100 µM
- GI50 (786-0 renal): 12.3 µM
- TGI (786-0 renal): > 100 µM
- GI50 (OVCAR-5 ovarian): 25.3 µM
- TGI (OVCAR-5 ovarian): > 100 µM
- GI50 (PC-3 prostate): 5.61 µM
- TGI (PC-3 prostate): > 100 µM
- GI50 (M14 melanoma): 1.69 µM
- TGI (M14 melanoma): 7.95 µM
- GI50 (ACHN renal): 3.02 µM
- TGI (ACHN renal): 77.9 µM
- GI50 (SK-MEL-2 melanoma): 21.8 µM
- TGI (SK-MEL-2 melanoma): 61.5 µM
- GI50 (SK-OV-3 ovarian): 28.5 µM
- TGI (SK-OV-3 ovarian): > 100 µM
- GI50 (K-562 leukemia): 28.1 µM
- TGI (K-562 leukemia): > 100 µM
- GI50 (EKVX NSCLC): 14.9 µM
- TGI (EKVX NSCLC): 51.3 µM
- GI50 (HCT-116 colon): 2.4 µM
- TGI (HCT-116 colon): > 100 µM
- GI50 (SK-MEL-28 melanoma): 21.1 µM
- TGI (SK-MEL-28 melanoma): 72.8 µM
- GI50 (SN12C renal): 5.42 µM
- TGI (SN12C renal): 20 µM
- GI50 (OVCAR-8 ovarian): 4.87 µM
- TGI (OVCAR-8 ovarian): > 100 µM
- GI50 (MOLT-4 leukemia): 21.2 µM
- TGI (MOLT-4 leukemia): > 100 µM
- GI50 (UACC-257 melanoma): 5.71 µM
- TGI (UACC-257 melanoma): > 100 µM
- GI50 (T-47D breast): 8.32 µM
- TGI (T-47D breast): > 100 µM
- GI50 (SNB-75 CNS): 17 µM
- TGI (SNB-75 CNS): > 100 µM
- GI50 (NCI-H226 lung): 18.6 µM
- TGI (NCI-H226 lung): 91.9 µM
- GI50 (HOP-92 NSCLC): 24.7 µM
- TGI (HOP-92 NSCLC): > 100 µM
- GI50 (DU-145 prostate): 2.77 µM
- TGI (DU-145 prostate): 35.7 µM
